Common to all, as to assay: relative viability (nuclei count vs DMSO), 5 days (fraction); higher = more cells survive
Compound in the assay “Crenolanib + Phenformin”: CC1(COc2ccc3c(c2)ncn3-c2ccc3cccc(N4CCC(N)CC4)c3n2)COC1 [Crenolanib] + N=C(N)NC(=N)NCCc1ccccc1 [Phenformin] (partner 250 µM)
An outline of the steps:
(§1)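 Nuclei were stained with Hoechst during a one-step fixation (final 0.05% Triton X-100, 1% formaldehyde, 1 ug/ml Hoechst) carried out 5 days after dosing, then counted on 4× images. The cells, lung cancer lines in 1536-well plates, had been dosed by pin tool the day after seeding with one drug alone or a fixed anchor-drug dose plus five library-drug doses (not always all listed) in √10 steps. Relative viability is the nuclei count in treated wells divided by that in vehicle wells, and each value is the median of duplicate plates.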

Compound in the assay “Crenolanib + Luminespib”: CC1(COc2ccc3c(c2)ncn3-c2ccc3cccc(N4CCC(N)CC4)c3n2)COC1 [Crenolanib] + CCNC(=O)c1noc(-c2cc(C(C)C)c(O)cc2O)c1-c1ccc(CN2CCOCC2)cc1 [Luminespib] (partner 0.01 µM)
An outline of the steps: as §1

Compound in the assay “Tivantinib + Linsitinib”: O=C1NC(=O)[C@@H](c2cn3c4c(cccc24)CCC3)[C@@H]1c1c[nH]c2ccccc12 [Tivantinib] + C[C@]1(O)C[C@@H](c2nc(-c3ccc4ccc(-c5ccccc5)nc4c3)c3c(N)nccn32)C1 [Linsitinib] (partner 1 µM)
A digest of the protocol: as §1

Compound in the assay “Crenolanib + Decitabine”: CC1(COc2ccc3c(c2)ncn3-c2ccc3cccc(N4CCC(N)CC4)c3n2)COC1 [Crenolanib] + Nc1ncn([C@H]2C[C@H](O)[C@@H](CO)O2)c(=O)n1 [Decitabine] (partner 2 µM)
An outline of the steps: as §1

On to NCI-H838, for which the relative viability amounted to 0.562 with Crenolanib + Phenformin (first compound 0.01 µM); 0.586 in the assay with Crenolanib + Phenformin (first compound 0.03162 µM); 0.632 with Crenolanib + Phenformin (first compound 0.1 µM); 0.539 in the assay with Crenolanib + Phenformin (first compound 0.3162 µM); 0.527 with Crenolanib + Phenformin (first compound 1 µM); 0.353 with Crenolanib + Luminespib (first compound 0.01 µM). For the same cell line, the relative viability with Crenolanib + Luminespib (first compound 0.03162 µM) amounted to 0.235; with Crenolanib + Luminespib (first compound 0.1 µM), 0.29; with Crenolanib + Luminespib (first compound 0.3162 µM), 0.301; with Crenolanib + Luminespib (first compound 1 µM), 0.373; with Tivantinib + Linsitinib (first compound 0.01 µM), 1.01; with Tivantinib + Linsitinib (first compound 0.03162 µM), 1.04. Further, the relative viability was 0.975 with Tivantinib + Linsitinib (first compound 0.1 µM); 0.984 in the assay with Tivantinib + Linsitinib (first compound 0.3162 µM); 0.482 in the assay with Crenolanib + Decitabine (first compound 0.01 µM); 0.463 with Crenolanib + Decitabine (first compound 0.03162 µM); 0.45 with Crenolanib + Decitabine (first compound 0.1 µM); 0.466 with Crenolanib + Decitabine (first compound 0.3162 µM). The relative viability with Crenolanib + Decitabine (first compound 1 µM) is 0.418.

On to NCI-H2126, for which the relative viability was determined as 0.533 in the assay with Crenolanib + Phenformin (first compound 0.01 µM); 0.536 in the assay with Crenolanib + Phenformin (first compound 0.03162 µM); 0.51 with Crenolanib + Phenformin (first compound 0.1 µM); 0.51 with Crenolanib + Phenformin (first compound 0.3162 µM); 0.455 in the assay with Crenolanib + Phenformin (first compound 1 µM); 0.922 with Crenolanib + Luminespib (first compound 0.01 µM). Moreover, the relative viability in the assay with Crenolanib + Luminespib (first compound 0.03162 µM) stood at 0.958; in the assay with Crenolanib + Luminespib (first compound 0.1 µM) it was 0.869; with Crenolanib + Luminespib (first compound 0.3162 µM) it was 0.857; with Crenolanib + Luminespib (first compound 1 µM), 0.588; with Tivantinib + Linsitinib (first compound 0.01 µM) it was 0.713; with Tivantinib + Linsitinib (first compound 0.03162 µM), 0.677. The relative viability with Tivantinib + Linsitinib (first compound 0.1 µM) is 0.671; with Tivantinib + Linsitinib (first compound 0.3162 µM), 0.578; with Crenolanib + Decitabine (first compound 0.01 µM), 0.544; in the assay with Crenolanib + Decitabine (first compound 0.03162 µM) it was 0.564; in the assay with Crenolanib + Decitabine (first compound 0.1 µM) it was 0.61; in the assay with Crenolanib + Decitabine (first compound 0.3162 µM), 0.659. Moreover, the relative viability with Crenolanib + Decitabine (first compound 1 µM) was 0.586.

As to BEN, the relative viability came to 0.259 with Crenolanib + Phenformin (first compound 0.01 µM); 0.235 in the assay with Crenolanib + Phenformin (first compound 0.03162 µM); 0.267 with Crenolanib + Phenformin (first compound 0.1 µM); 0.255 with Crenolanib + Phenformin (first compound 0.3162 µM); 0.271 with Crenolanib + Phenformin (first compound 1 µM); 0.644 in the assay with Crenolanib + Luminespib (first compound 0.01 µM). Besides, the relative viability in the assay with Crenolanib + Luminespib (first compound 0.03162 µM) was found to be 0.257; in the assay with Crenolanib + Luminespib (first compound 0.1 µM) it was 0.425; with Crenolanib + Luminespib (first compound 0.3162 µM), 0.528; with Crenolanib + Luminespib (first compound 1 µM), 0.32; in the assay with Tivantinib + Linsitinib (first compound 0.01 µM) it was 0.998; with Tivantinib + Linsitinib (first compound 0.03162 µM), 0.725. The relative viability with Tivantinib + Linsitinib (first compound 0.1 µM) is 0.826; with Tivantinib + Linsitinib (first compound 0.3162 µM) it was 0.693; with Crenolanib + Decitabine (first compound 0.01 µM), 0.768; with Crenolanib + Decitabine (first compound 0.03162 µM), 0.72; with Crenolanib + Decitabine (first compound 0.1 µM) it was 0.76; with Crenolanib + Decitabine (first compound 0.3162 µM) it was 0.612. Moreover, in the assay with Crenolanib + Decitabine (first compound 1 µM), the relative viability is 0.749.

Consider LCLC-97TM1, for which the relative viability with Crenolanib + Phenformin (first compound 0.01 µM) turned out to be 0.476; in the assay with Crenolanib + Phenformin (first compound 0.03162 µM) it was 0.477; with Crenolanib + Phenformin (first compound 0.1 µM), 0.457; with Crenolanib + Phenformin (first compound 0.3162 µM) it was 0.455; with Crenolanib + Phenformin (first compound 1 µM), 0.455; with Crenolanib + Luminespib (first compound 0.01 µM), 0.777. Moreover, the relative viability is 0.749 in the assay with Crenolanib + Luminespib (first compound 0.03162 µM); 0.792 with Crenolanib + Luminespib (first compound 0.1 µM); 0.844 with Crenolanib + Luminespib (first compound 0.3162 µM); 0.753 with Crenolanib + Luminespib (first compound 1 µM); 0.176 with Tivantinib + Linsitinib (first compound 0.01 µM); 0.174 with Tivantinib + Linsitinib (first compound 0.03162 µM). The relative viability with Tivantinib + Linsitinib (first compound 0.1 µM) turned out to be 0.174; in the assay with Tivantinib + Linsitinib (first compound 0.3162 µM), 0.14; with Crenolanib + Decitabine (first compound 0.01 µM), 0.203; in the assay with Crenolanib + Decitabine (first compound 0.03162 µM), 0.221; with Crenolanib + Decitabine (first compound 0.1 µM), 0.193; in the assay with Crenolanib + Decitabine (first compound 0.3162 µM), 0.226. In addition, the relative viability with Crenolanib + Decitabine (first compound 1 µM) stood at 0.208.

For EKVX, the relative viability was determined as 0.223 in the assay with Crenolanib + Phenformin (first compound 0.01 µM); 0.224 in the assay with Crenolanib + Phenformin (first compound 0.03162 µM); 0.24 in the assay with Crenolanib + Phenformin (first compound 0.1 µM); 0.241 with Crenolanib + Phenformin (first compound 0.3162 µM); 0.23 in the assay with Crenolanib + Phenformin (first compound 1 µM); 0.915 with Crenolanib + Luminespib (first compound 0.01 µM). Moreover, the relative viability in the assay with Crenolanib + Luminespib (first compound 0.03162 µM) was found to be 0.952; in the assay with Crenolanib + Luminespib (first compound 0.1 µM), 0.909; in the assay with Crenolanib + Luminespib (first compound 0.3162 µM), 1.03; in the assay with Crenolanib + Luminespib (first compound 1 µM), 0.93; with Tivantinib + Linsitinib (first compound 0.01 µM) it was 1; with Tivantinib + Linsitinib (first compound 0.03162 µM) it was 0.898. For the same cell line, the relative viability with Tivantinib + Linsitinib (first compound 0.1 µM) came out at 0.915; with Tivantinib + Linsitinib (first compound 0.3162 µM), 0.25; with Crenolanib + Decitabine (first compound 0.01 µM), 0.377; in the assay with Crenolanib + Decitabine (first compound 0.03162 µM), 0.318; with Crenolanib + Decitabine (first compound 0.1 µM), 0.392; in the assay with Crenolanib + Decitabine (first compound 0.3162 µM), 0.319. The relative viability in the assay with Crenolanib + Decitabine (first compound 1 µM) was 0.38.

For the cell line ABC-1, the relative viability in the assay with Crenolanib + Phenformin (first compound 0.01 µM) was found to be 0.21; with Crenolanib + Phenformin (first compound 0.03162 µM) it was 0.265; in the assay with Crenolanib + Phenformin (first compound 0.1 µM), 0.22; with Crenolanib + Phenformin (first compound 0.3162 µM) it was 0.261; with Crenolanib + Phenformin (first compound 1 µM), 0.257; with Crenolanib + Luminespib (first compound 0.03162 µM) it was 0.655. In addition, the relative viability in the assay with Crenolanib + Luminespib (first compound 0.1 µM) came out at 0.666; with Crenolanib + Luminespib (first compound 0.3162 µM), 0.47; with Crenolanib + Luminespib (first compound 1 µM), 0.611; with Tivantinib + Linsitinib (first compound 0.01 µM), 0.767; in the assay with Tivantinib + Linsitinib (first compound 0.03162 µM), 0.826; with Tivantinib + Linsitinib (first compound 0.1 µM), 0.557. The relative viability was 0.646 in the assay with Tivantinib + Linsitinib (first compound 0.3162 µM); 1.42 with Crenolanib + Decitabine (first compound 0.01 µM); 1.22 with Crenolanib + Decitabine (first compound 0.03162 µM); 0.978 with Crenolanib + Decitabine (first compound 0.1 µM); 1.17 in the assay with Crenolanib + Decitabine (first compound 0.3162 µM); 1.15 in the assay with Crenolanib + Decitabine (first compound 1 µM).

For the cell line NCI-H661, the relative viability with Crenolanib + Phenformin (first compound 0.01 µM) came to 0.284; with Crenolanib + Phenformin (first compound 0.03162 µM), 0.275; with Crenolanib + Phenformin (first compound 0.1 µM), 0.289; in the assay with Crenolanib + Phenformin (first compound 0.3162 µM) it was 0.283; in the assay with Crenolanib + Phenformin (first compound 1 µM), 0.289; with Crenolanib + Luminespib (first compound 0.01 µM), 0.939. The relative viability with Crenolanib + Luminespib (first compound 0.03162 µM) came to 0.88; with Crenolanib + Luminespib (first compound 0.1 µM), 0.893; in the assay with Crenolanib + Luminespib (first compound 0.3162 µM) it was 0.958; with Crenolanib + Luminespib (first compound 1 µM), 0.959; with Tivantinib + Linsitinib (first compound 0.01 µM) it was 0.658; with Tivantinib + Linsitinib (first compound 0.03162 µM), 0.442. The relative viability with Tivantinib + Linsitinib (first compound 0.1 µM) stood at 0.628; in the assay with Crenolanib + Decitabine (first compound 0.01 µM) it was 0.534; with Crenolanib + Decitabine (first compound 0.03162 µM), 0.514; with Crenolanib + Decitabine (first compound 0.1 µM), 0.544; with Crenolanib + Decitabine (first compound 0.3162 µM) it was 0.555; with Crenolanib + Decitabine (first compound 1 µM), 0.541.

In the case of NCI-H1651, the relative viability came out at 0.331 with Crenolanib + Phenformin (first compound 0.01 µM); 0.36 in the assay with Crenolanib + Phenformin (first compound 0.03162 µM); 0.35 with Crenolanib + Phenformin (first compound 0.1 µM); 0.336 in the assay with Crenolanib + Phenformin (first compound 0.3162 µM); 0.308 with Crenolanib + Phenformin (first compound 1 µM); 0.867 in the assay with Crenolanib + Luminespib (first compound 0.01 µM). Also, the relative viability is 0.926 with Crenolanib + Luminespib (first compound 0.03162 µM); 0.711 in the assay with Crenolanib + Luminespib (first compound 0.1 µM); 0.875 with Crenolanib + Luminespib (first compound 0.3162 µM); 0.748 with Crenolanib + Luminespib (first compound 1 µM); 0.937 with Tivantinib + Linsitinib (first compound 0.01 µM); 1.01 with Tivantinib + Linsitinib (first compound 0.03162 µM). Further, the relative viability with Tivantinib + Linsitinib (first compound 0.1 µM) was 1.04; with Tivantinib + Linsitinib (first compound 0.3162 µM), 0.814; in the assay with Crenolanib + Decitabine (first compound 0.01 µM), 0.678; in the assay with Crenolanib + Decitabine (first compound 0.03162 µM) it was 0.583; in the assay with Crenolanib + Decitabine (first compound 0.1 µM), 0.592; with Crenolanib + Decitabine (first compound 0.3162 µM), 0.589. Besides, the relative viability with Crenolanib + Decitabine (first compound 1 µM) came to 0.638.

The values above are taken from the supplement of paper PMC10307832.
